The term IC50 denotes the concentration that inhibits the measured activity by half. Higher therefore signals weaker potency.

For the assay, the target named is T1, human MRGPRX2 (Homo sapiens, UniProt Q96LB1).
T1 sequence (Q96LB1 1-330): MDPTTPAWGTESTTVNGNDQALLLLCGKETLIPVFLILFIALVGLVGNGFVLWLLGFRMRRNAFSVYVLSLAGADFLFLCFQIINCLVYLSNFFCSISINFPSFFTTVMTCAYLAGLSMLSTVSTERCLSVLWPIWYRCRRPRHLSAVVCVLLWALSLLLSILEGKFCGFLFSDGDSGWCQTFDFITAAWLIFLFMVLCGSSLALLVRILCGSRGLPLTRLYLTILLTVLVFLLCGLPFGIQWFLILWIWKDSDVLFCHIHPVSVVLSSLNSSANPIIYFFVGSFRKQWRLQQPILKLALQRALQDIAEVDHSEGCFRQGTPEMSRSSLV
As to the kind of experiment: Ca2+ mobilization assay (FLIPR TETRA): inhibition of Cortistatin-14 mediated MRGPRX2 activation. For orientation: Calcium assays in cells follow changes in intracellular calcium, usually with a dye or a luminescent sensor.

For the compound `CC(C(=O)Nc1ccc(Oc2ccc(F)cc2F)cn1)N1CCC(F)(F)C(c2ccnc(CN)c2)C1` (mixture of isomers) [Example 264, 2-(3-(2-(aminomethyl)pyridin-4-yl)-4,4-difluoropiperidin-1-yl)-N-(5-(2,4-difluorophenoxy)pyridin-2-yl)propanamide], the IC50 was no more than 0.01 µM.

For `C[C@@H](C(=O)Nc1ccc(C2CC2)cn1)N1CCC(F)(F)[C@@H](c2ccc(=O)[nH]c2)C1` [Example 15, (S)-N-(5-cyclopropyl-pyridin-2-yl)-2-((S)-4,4-difluoro-3-(6-oxo-1,6-dihydropyridin-3-yl)piperidin-1-yl)propanaraide], the half-inhibitory concentration (IC50) was 0.01 to 0.1 µM.

In turn, `C[C@@H](C(=O)Nc1ccc(-c2ccccc2)cn1)N1CCC(F)(F)[C@@H](c2ccc(=O)[nH]c2)C1` [Example 23, (S)-2-((S)-4,4-difluoro-3-(6-oxo-1,6-dihydropyridin-3-yl)piperidin-1-yl)-N-(5-phenylpyridin-2-yl)propanamide] displayed an IC50 of 0.1 to 3.16 µM.

`C[C@@H](C(=O)Nc1ccc(Cl)cn1)N1CCC[C@@H](c2c[nH]c(=O)c(N)c2)C1` [Example 170] returned a half-inhibitory concentration (IC50) of 0.1 to 3.16 µM.

In turn, `CC(C(=O)Nc1ccc(CC2CC2)cn1)N1CCC(F)(F)[C@@H](c2ccc(=O)[nH]c2)C1` (stereo partly drawn) [Example 41, N-(5-(cyclopropyl-methyl)pyridin-2-yl)-2-((S)-4,4-difluoro-3-(6-oxo-1,6-dihydropyridin-3-yl)piperidin-1-yl)propanamide] displayed an IC50 of 0.1 to 3.16 µM.

For the compound `C[C@@H](C(=O)Nc1ccc(F)cn1)N1CCC(F)(F)[C@@H](c2ccc(=O)n(Cc3ccccc3)c2)C1` [Example 195], the IC50 was no more than 0.01 µM.

`C[C@@H](C(=O)Nc1ccc(Oc2ccc(F)cc2F)cn1)N1CCC[C@@H](c2cc[n+]([O-])cc2)C1` [Example 182, 4-((S)-1-((S)-1-((5-(2,4-difluorophenoxy)pyridin-2-yl)amino)-1-oxopropan-2-yl)piperidin-3-yl)pyridine 1-oxide] yielded an IC50 of no more than 0.01 µM.

Take `C[C@@H](C(=O)Nc1cnc(Oc2ccc(F)cc2)cn1)[C@H]1CCC(F)(F)[C@@H](c2cc[n+]([O-])cc2)C1` [Example 292, 4-((1R,5S)-2,2-difluoro-5-((R)-1-((5-(4-fluorophenoxy)pyrazin-2-yl)amino)-1-oxopropan-2-yl)cyclohexyl)pyridine 1-oxide]: the IC50 was 0.01 to 0.1 µM.

Regarding `C[C@@H](C(=O)Nc1ccc(Oc2ccc(F)cc2F)cn1)[C@H]1CCC[C@@H](c2ccc(=O)[nH]c2)C1` [Example 282, (R)—N-(5-(2,4-difluorophenoxy)pyridin-2-yl)-2-((1S,3R)-3-(6-oxo-1,6-dihydropyridin-3-yl)cyclohexyl)propanamide], the IC50 was no more than 0.01 µM.

Compound `C[C@@H](C(=O)Nc1ccc(F)cn1)N1CCC(F)(F)[C@@H](c2cn(CC(F)(F)F)c(=O)cn2)C1` (single isomer, unassigned) [Example 103] registered an IC50 of no more than 0.01 µM.

Compound `C[C@@H](C(=O)Nc1ccc(C(=O)c2ccc(F)cc2)cn1)N1CCC(F)(F)[C@@H](c2cc[n+]([O-])cc2)C1` [Example 128, 4-((S)-4,4-difluoro-1-((S)-1-((5-(4-fluorobenzoyl)pyridin-2-yl)amino)-1-oxopropan-2-yl)piperidin-3-yl)pyridine 1-oxide] displayed an IC50 of 0.1 to 3.16 µM.

In the case of `CC(C(=O)Nc1ccc(Cl)cn1)N1CCC(F)(F)C(c2c[nH]c(=O)c(CO)c2)C1` (stereo not shown) [Example 155, N-(5-chloropyridin-2-yl)-2-(4,4-difluoro-3-(5-(hydroxymethyl)-6-oxo-1,6-dihydropyridin-3-yl)piperidin-1-yl)propanamide], the IC50 was 0.1 to 3.16 µM.

For `C[C@@H](C(=O)Nc1ccc(OC2CCCC2)cn1)N1CCC(F)(F)[C@@H](c2ccc(=O)[nH]c2)C1` [Example 9, (S)-N-(5-(cyclopentyloxy)pyridin-2-yl)-2-((S)-4,4-difluoro-3-(6-oxo-1,6-dihydropyridin-3-yl)piperidin-1-yl)propanamide], the IC50 was in the range of 0.01 to 0.1 µM.
